Experimental data published in patent publication US6214805A, “RNase L activators and antisense oligonucleotides effective to treat RSV infections” (priority 1997, dated 2001).

What was measured:
[1] = test system: RSV strain A2; assay: Antiviral activity in Hep-2 cells, neutral red (reduction of RSV-induced CPE); format: cell-based, Respiratory syncytial virus
Excerpt: (§1) A comparison of the efficacies of spA4 -antiRSV3'3'T/(8281-8299) treatment and conventional ribarvirin treatment can be obtained by determining the RSV-inhibitory concentration and the cytotoxic concentration of each compound. Cultures of the human laryngeal carcinoma cell line HEp-2 and the […] renal cell line MA-104 were established and infected with an MOI=0.005. Cultures were fed twice daily. Treatment with either ribavirin or spA4 -antiRSV3'3'T/(8281-8299) was begun simultaneously with infection and continued for four days. Treatment was then withdrawn and the test read on day 5. The effects of treatment on RSV infection were reported as 1) an EC50, the concentration at which there was a 50% reduction in the observable cytopathic effects of infection and 2) an EC90, the concentration at which there was a 90% reduction in viral production. […] Therapeutic efficacy is estimated by the Selectivity Index, which is the ratio of IC50 /EC50.
determined with RSV strain A2, MOI = 0.005
(§2) Fresh medium and oligo or ribavirin added twice daily for 4 d and test read
(§3) EC50 effective concentration to reduce RSV-induced CPE by 50%.

[2] = test system: Hep-2 Cells; assay: Cytotoxicity to Hep-2 cells (visual and dye uptake, rapidly dividing cells); format: cell-based, human; details: Homo sapiens
Excerpt: as §1
(§4) IC50 50% inhibitory concentration for cytotoxicity to cells (visual

[3] = test system: RSV strain A2; assay: Antiviral activity in MA-104 cells, visual CPE; format: cell-based, Respiratory syncytial virus
Excerpt: as §1
(§5) as determined with RSV strain A2, MOI = 0.005
as §2, §3

[4] = test system: RSV strain A2; assay: Virus yield reduction in MA-104 cells; format: cell-based, Respiratory syncytial virus; details: human respiratory syncytial virus, MA104, 96 h, RSV yield reduced by 90%, MOI = 0.005, added twice daily for 4 d
Excerpt: as §1, §5, §2
EC90 effective concentration to reduce RSV yield by 90%.

[5] = test system: MA-104 Cells; assay: Cytotoxicity to MA-104 cells (visual and dye uptake, rapidly dividing cells); format: cell-based, murine; details: MA104
Excerpt: as §1, §4

[6] = test system: RSV strain A2; assay: Virus yield reduction assay in HEp-2 cells; format: cell-based, Respiratory syncytial virus; details: human respiratory syncytial virus, compound added twice daily
Procedure: EC50 & EC90 : concentration required to reduce virus (RSV strain
Both compounds were added to the cells twice daily.

[7] = test system: Hep-2 Cells; assay: Cytotoxicity by morphological changes in HEp-2 cells (CPE inhibition assay); format: cell-based, human; details: Homo sapiens
Procedure: Embryonic African green monkey kidney cells (MA-104) were obtained from BioWhittaker, Inc. (Walkersville, Md.). HEp-2 cells were propagated from a human epidermoid carcinoma of the larynx (American Type Culture Collection, ATCC; Rockville, Md.). The cells were grown in minimal essential medium. (MEM, Gibco-BRL, Gaitherburg, Md.) supplemented with 0.1% NaHCO3 and 10% fetal bovine serum (FBS, Hyclone Laboratories, Logan Utah.). When performing antiviral assays, serum was reduced to 2% and 50 μg/ml gentamicin (Sigma Chemical Company, St. Louis, Mo.) was added to the medium.
Morphological changes due to compound cytotoxicity were graded on a scale of 0-5; grade 5 was defined as 100% cytotoxicity. The 50% cytotoxic dose (IC50 was calculated by regression analysis. A selective index (S.I.) was calculated for each compound [S.I.=(IC50)/(EC50 ].

[8] = test system: RSV CH18537 (B); assay: CPE inhibition assay in HEp-2 cells, RSV strain CH18537; format: cell-based, Respiratory syncytial virus; details: Table 12, CPE
Procedure: (§6) The CPE inhibition assay used in this study was performed as described by Sidwell and Huffman (Sidwell et al., 1971, Appl. Microbiol. 22:7979-7801) with slight modifications. Varying concentrations of test compounds were added to each plate containing near confluent cell monolayers (1×10^5 cells/well) followed immediately by the addition of virus at a multiplicity of infection (MOI)=0.01, and then incubated at 37° C. On the following day, the medium from each plate was removed and fresh compound added. The assay was stopped at the end of the sixth day when the virus cytopathic effect in the virus infected, untreated control cells affected all cells. All compounds were assayed for virus inhibition in quadruplicate and for cytotoxicity in duplicate. For each compound, two wells were set aside as uninfected, untreated cell controls per test and four wells per test received virus only and represented controls for virus replication. […] For all CPE-based assays, the 50% effective concentration (EC50) was calculated by regression analysis using the means of the CPE ratings at each concentration of compound.
(§7) In this series, MP351 was added once a day for two days with fresh medium

[9] = test system: RSV Long (A); assay: CPE inhibition assay in HEp-2 cells, RSV strain Long; format: cell-based, Respiratory syncytial virus; details: Table 12, CPE
Procedure: as §6, §7

[10] = test system: RSV 393 (clinical isolate); assay: CPE inhibition assay in HEp-2 cells, RSV 393; format: cell-based, Respiratory syncytial virus; details: Table 12, CPE
Procedure: as §6, §7

[11] = test system: RSV CH18537 (B); assay: Neutral red uptake assay in HEp-2 cells, RSV strain CH18537; format: cell-based, Respiratory syncytial virus; details: Table 12, neutral red
Procedure: (§8) This assay was performed by a modified method as described by Cavenaugh et al. (Cavenaugh et al. 1990, Invest. New Drugs 8:347-354). Briefly, medium was removed from each well of a plate scored for CPE from a CPE inhibition assay, 0.2 ml of neutral red (0.034% in PSS) was added to each of the wells of that plate and the plate incubated for 2 hr at 37° C. in the dark. The neutral red solution was removed from the wells and the wells rinsed twice with PBS (pH 7.4). Equal volumes (0.1 ml) of absolute ethanol and Sorenson citrate buffer (0.1 M sodium citrate, 0.1 M HCI, pH 4.2) were mixed together and added to each well. Plates were incubated in the dark for 30 min. at room temperature to solubilize the dye. The plates were then gently mixed on a 96-well plate adapted vortexer for 1 min. Absorbances at 540 nm and 450 nm were read with a microplate reader (Bio-Tek EL 1309; Bio-Tek Instruments, Inc. Winooski, Vt.). Absorbance values were expressed as percents of untreated controls and EC50 and IC50 values were calculated by regression analysis.
as §7

[12] = test system: RSV 393 (clinical isolate); assay: Neutral red uptake assay in HEp-2 cells, RSV 393; format: cell-based, Respiratory syncytial virus; details: Table 12, neutral red
Procedure: as §8, §7

[13] = in vivo; cited from earlier work
[14] = human respiratory syncytial virus, 48 h, once a day for two days

Question: What does the source list for `NC(=O)c1ncn([C@@H]2O[C@H](CO)[C@@H](O)[C@H]2O)n1` [Ribavirin]?
Answer: SI selectivity index = IC50/EC50 [1]: 10; EC50 ([1]; human respiratory syncytial virus, 96 h, neutral red, MOI = 0.005, added twice daily for 4 d, read on d 5): 4 µM; IC50 [2]: 41 µM; SI selectivity index = IC50/EC50 [3]: 210; EC50 ([3]; human respiratory syncytial virus, MA104, 96 h, visual CPE, MOI = 0.005, added twice daily for 4 d, read on d 5): 1 µM; SI selectivity index = IC50/EC50 ([3]; listed as ribavirin): about 200; EC90 [4]: 7 µM; IC50 [5]: 210 µM; EC50 ([6]; virus yield reduced by 50%): 40 µM; EC90 ([6]; virus yield reduced by 90%): 80 µM; IC50 ([7]; HEp-2, 0 h, Table 13, CPE, q.d., Day 0, HEp-2): 240 µM; IC50 ([7]; HEp-2, 24 h, Table 10, CPE, q.d. 1 day (added along with virus, never replenished), HEp2): 230 µM; IC50 ([7]; HEp-2, 24 h, Table 13, CPE, q.d., Day 1, HEp-2): 320 µM; IC50 ([7]; HEp-2, 48 h, Table 10, CPE, B.I.D. 2 days, HEp2): 230 µM; IC50 ([7]; HEp-2, 48 h, Table 13, CPE, q.d., Day 2, HEp-2): 320 µM; IC50 ([7]; HEp-2, 72 h, Table 10, CPE, B.I.D. 3 days, HEp2): 720 µM; IC50 ([7]; HEp-2, 72 h, Table 10, CPE, q.d. 3 days, HEp2): 230 µM; IC50 ([7]; HEp-2, 96 h, Table 10, CPE, B.I.D. 4 days, HEp2): 230 µM; IC50 ([7]; HEp-2, 96 h, Table 10, CPE, q.d. 4 days, HEp2): 230 µM; IC50 ([7]; HEp-2, Table 12, CPE, test with 393 (clinical isolate), HEp-2): 96 µM; IC50 ([7]; HEp-2, Table 12, CPE, test with CH18537 (B), HEp-2): 208 µM; IC50 ([7]; HEp-2, Table 12, CPE, test with Long (A), HEp-2): 205 µM; SI [8]: 52; EC50 [8, 14]: 4 µM; SI [9]: 17; EC50 [9, 14]: 12 µM; SI [10]: 24; EC50 [10, 14]: 4 µM; SI [11]: 19; EC50 [11, 14]: 12 µM; SI [12]: 24; EC50 [12, 14]: 4 µM; half-life [13]: 40 days
